According to patent publication US20120197004A1, “NOVEL ANTI-MICROBIAL PEPTIDOMIMETIC COMPOUNDS AND METHODS TO CALCULATE ANTI-MICROBIAL ACTIVITY” (priority 2006, published 2012):
Where a SMILES comes first, the peptide text is derived from it. [ ]: non-standard residue; d: D form. Oic = O=C(O)[C@@H]1C[C@@H]2CCCC[C@@H]2N1; Tic = O=C(O)[C@@H]1Cc2ccccc2CN1; GABA = NCCCC(=O)O

System: Mycobacterium ranae (ATCC 110)
Settings: in vitro

For `CC(=O)NCCCC(=O)N[C@@H](Cc1ccccc1)C(=O)N1Cc2ccccc2C[C@H]1C(=O)N1[C@H](C(=O)NCCCC(=O)N[C@@H](CCCCN)C(=O)N2Cc3ccccc3C[C@H]2C(=O)N2[C@H](C(=O)NCCCC(=O)N[C@@H](Cc3ccccc3)C(=O)N3Cc4ccccc4C[C@H]3C(=O)N3[C@H](C(=O)NCCCC(=O)N[C@@H](CCCCN)C(=O)N4Cc5ccccc5C[C@H]4C(=O)N[C@@H](CCCCN)C(=O)N[C@@H](CCCCN)C(=O)N[C@@H](CCCCN)C(=O)N[C@@H](CCCCN)C(=O)N[C@@H](CCCCN)C(N)=O)C[C@@H]4CCCC[C@@H]43)C[C@@H]3CCCC[C@@H]32)C[C@@H]2CCCC[C@@H]21` [FKAB-1Gd3, Ac-Gaba-F-Tic-Oic-Gaba-K-Tic-Oic-Gaba-F-Tic-Oic-Gaba-K-Tic-KKKKK-CONH2] (Ac-[GABA]F[Tic][Oic][GABA]K[Tic][Oic][GABA]F[Tic][Oic][GABA]K[Tic]KKKKK-NH2), the “selectivity for Mycobacterium ranae over Staphylococcus aureus ME/GM/TC resistant” value was 10 fold.
